In patent US20220371989A1, “N-ACYL-TYROSINE DERIVATIVES AND USES THEREOF” (Sederma, priority 2019, published 2022):
Entries after “also recorded” stand apart in the source; their conditions may differ.

Experiments:
Type in all cases: cell-based
Enterococcus hirae 17446 = test: microbroth dilution antimicrobial assay, E. hirae 17446; conditions: for IC50: Enterococcus hirae 17446, microbroth dilution, 22 h, 37° C., triplicate, read-out: IC50 of N-Acyltyrosines
Description: (§1) To test the proposed structure-activity relationship (SAR), a structural analogue compound (2) of compound (1) was synthesized that lacks an a-methyl substituent, and compound (2) was tested for antimicrobial activity in parallel with compound (1). Analogues (3) and (4) were also synthesized and assayed to further support a potential SAR involving the O-methyl substituent (FIG. 16-21). To thoroughly characterize the anti-Enterococcal activity of compounds (1)-(4), five veterinary clinical isolates from veterinary cases (in addition to VRE EF379) were obtained for this study. All five clinical isolates were classified as vancomycin-susceptible.
(§2) Evaluation of antimicrobial activity and cytotoxicity. The following five Enterococcus spp. were isolated from clinical specimens at the Atlantic Veterinary College (AVC) by the AVC Diagnostic Services Bacteriology Laboratory. Isolates were identified using the Bruker microflex LT MALDI-TOF with MBT Compass version 4.179. The direct colony transfer method was used with the Bruker Matrix HCCA (α-cyano-4-hydroxycinnamic acid) overlay, following manufacturer guidelines. Score values between 2.00 and 3.00 were considered high confidence identifications. The following isolates (with source species) were identified: E. faecium 15337 (feline), E. faecalis 16371 (canine), E. gallinarum 20993 (erinaceine), E. casseliflavus 15984 (equine) and E. hirae 17446 (avine). Antimicrobial activity of 1-4 was evaluated against all five clinical Enterococcus isolates in addition to methicillin-resistant Staphylococcus aureus ATCC 33591 (MRSA), S. warneri ATCC 17917, vancomycin-resistant Enterococcus faecium EF379 (VRE), Pseudomonas aeruginosa ATCC 14210, Proteus vulgaris ATCC 12454 and Candida albicans ATCC 14035. All testing was carried out in triplicate according to the Clinical Laboratory Standards Institute testing standards in a 96-well plate microbroth dilution assay as previously described.^14 Optical density was measured using a Thermo Scientific Varioskan Flash plate reader at 600 nm, recording at time zero and then again after incubation for 22 h (37° C.) to determine percent growth inhibition. Cytotoxicity was evaluated against Vero kidney cell line from African green monkey (Cercopithecus aethiops), MCF7 human breast adenocarcinoma cells (ATCC HTB-22), human breast adenocarcinoma cells (ATCC HTB-26) and HCT-116 human colorectal carcinoma cells (ATCC CCL-247). All assays were carried out as described previously.^14 Fluorescence was measured using a Thermo Scientific Varioskan Flash plate reader at 560/12 excitation, 590 nm emission both at time zero and 4 h after alamarBlue (Invitrogen) addition. For both antimicrobial and cytotoxicity data, growth inhibition was expressed as a percentage and plotted against the logarithm of concentration.

[1] = tested on: Enterococcus faecium EF379 (VRE); test: microbroth dilution antimicrobial assay, E. faecium EF379 (VRE); conditions: for IC50: Enterococcus faecium EF379 (VRE), 22 h, 37° C., triplicate, read-out: IC50 of N-Acyltyrosines
Text: (§3) α-Methylation of N-pamitoyltyrosines confers antimicrobial activity. Compound (1) was initially screened for antimicrobial activity against the following panel of pathogenic bacteria and fungi in Table 1 in microbroth dilution assays: methicillin-resistant Staphylococcus aureus (MRSA), Staphylococcus warneri, vancomycin-resistant Enterococcus faecium (VRE), Pseudomonas aeruginosa, Proteus vulgaris and Candida albicans. […] The inventors were aware of no reports on anti-Staphylococcus activity of N-acyltyrosines or on anti-Enterococcal activity of any N-acylated amino acid; thus, it was hypothesized that the α-methyl substituent of compound (1) may be a key component of the antimicrobial pharmacophore of compound 1, may confer Staphylococcus inhibitory activity to N-acyltyrosines, and/or perhaps may play a role in their Enterococcus activity.
as §1, §2

[2] = tested on: Enterococcus casseliflavus 15984; test: microbroth dilution antimicrobial assay, E. casseliflavus 15984; conditions: for IC50: Enterococcus casseliflavus 15984, microbroth dilution, 22 h, 37° C., triplicate, read-out: IC50 of N-Acyltyrosines
Description: as §1, §2

[3] = tested on: Enterococcus gallinarum 20993; test: microbroth dilution antimicrobial assay, E. gallinarum 20993; conditions: for IC50: Enterococcus gallinarum 20993, microbroth dilution, 22 h, 37° C., triplicate, read-out: IC50 of N-Acyltyrosines
Description: as §1, §2

[4] = tested on: Enterococcus faecalis 16371; test: microbroth dilution antimicrobial assay, E. faecalis 16371; conditions: for IC50: Enterococcus faecalis 16371, microbroth dilution, 22 h, 37° C., triplicate, read-out: IC50 of N-Acyltyrosines
Description: as §1, §2

[5] = tested on: Staphylococcus warneri ATCC 17917; test: microbroth dilution antimicrobial assay, S. warneri ATCC 17917; conditions: for IC50: ATCC17917, Staphylococcus warneri ATCC 17917, 22 h, 37° C., triplicate, read-out: IC50 of N-Acyltyrosines; for IC50 / growth inhibition (in words): microbroth dilution; for growth at the highest concentration tested (in words): 128 μg/mL
Text: as §3, §2

[6] = tested on: Enterococcus faecium 15337; test: microbroth dilution antimicrobial assay, E. faecium 15337; conditions: for IC50: Enterococcus faecium 15337, microbroth dilution, 22 h, 37° C., triplicate, read-out: IC50 of N-Acyltyrosines
Description: as §1, §2

[7] = tested on: Staphylococcus aureus ATCC 33591 (MRSA); test: microbroth dilution antimicrobial assay, S. aureus ATCC 33591 (MRSA); conditions: for growth at the highest concentration tested (in words): 128 μg/mL; for IC50: Staphylococcus aureus ATCC 33591 (MRSA), 22 h, 37° C., triplicate, read-out: IC50 of N-Acyltyrosines; for IC50 / growth inhibition (in words): microbroth dilution; for growth inhibition (in words): S. aureus (MRSA)
Text: as §3, §2

[8] = tested on: Candida albicans ATCC 14035; test: microbroth dilution antimicrobial assay, Candida albicans ATCC 14035
Text: (§4) α-Methylation of N-pamitoyltyrosines confers antimicrobial activity. Compound (1) was initially screened for antimicrobial activity against the following panel of pathogenic bacteria and fungi in Table 1 in microbroth dilution assays: methicillin-resistant Staphylococcus aureus (MRSA), Staphylococcus warneri, vancomycin-resistant Enterococcus faecium (VRE), Pseudomonas aeruginosa, Proteus vulgaris and Candida albicans. […]
(§5) Evaluation of antimicrobial activity and cytotoxicity. […] Antimicrobial activity of 1-4 was evaluated against all five clinical Enterococcus isolates in addition to methicillin-resistant Staphylococcus aureus ATCC 33591 (MRSA), S. warneri ATCC 17917, vancomycin-resistant Enterococcus faecium EF379 (VRE), Pseudomonas aeruginosa ATCC 14210, Proteus vulgaris ATCC 12454 and Candida albicans ATCC 14035. All testing was carried out in triplicate according to the Clinical Laboratory Standards Institute testing standards in a 96-well plate microbroth dilution assay as previously described.^14 Optical density was measured using a Thermo Scientific Varioskan Flash plate reader at 600 nm, recording at time zero and then again after incubation for 22 h (37° C.) to determine percent growth inhibition. […] For both antimicrobial and cytotoxicity data, growth inhibition was expressed as a percentage and plotted against the logarithm of concentration.

[9] = tested on: Proteus vulgaris ATCC 12454; test: microbroth dilution antimicrobial assay, Proteus vulgaris ATCC 12454
Text: as §4, §5

[10] = tested on: Pseudomonas aeruginosa ATCC 14210; test: microbroth dilution antimicrobial assay, P. aeruginosa ATCC 14210
Text: as §4, §5

SMILES | IC50 (Enterococcus hirae 17446) | IC50 ([1]; microbroth dilution) | IC50 [2] | IC50 [3] | IC50 [4] | IC50 [5] | IC50 [6] | IC50 [7] | growth at the highest concentration tested (in words) ([5]; S. warneri) | growth at the highest concentration tested (in words) ([7]; S. aureus) | growth inhibition (in words) ([5]; S. warneri) | growth inhibition (in words) [7] | also measured
CCCCCCCCCCCCCCCC(=O)N[C@@H](Cc1ccc(OC)cc1)C(=O)O [Compound 2, N-Palmitoyl-O-methyl-L-tyrosine] | 3.6 µM | 13.3 µM | 10.7 µM | 71.5 µM | > 295 µM | > 295 µM | 10.5 µM | > 295 µM | unaffected | unaffected |  |  | Enterococcus inhibitory activity (in words) ([4]; E. faecalis 16371, FIG. 24 legend): inactive
CN[C@H](CC(C)C)C(=O)N[C@H]1C(=O)N[C@@H](CC(N)=O)C(=O)N[C@H]2C(=O)N[C@H]3C(=O)N[C@H](C(=O)N[C@H](C(=O)O)c4cc(O)cc(O)c4-c4cc3ccc4O)[C@H](O)c3ccc(c(Cl)c3)Oc3cc2cc(c3O[C@@H]2O[C@H](CO)[C@@H](O)[C@H](O)[C@H]2O[C@H]2C[C@](C)(N)[C@H](O)[C@H](C)O2)Oc2ccc(cc2Cl)[C@H]1O [VAN, reference compound] |  |  |  |  |  |  |  |  |  |  |  |  | IC50 of positive control antibiotic ([5]; S. warneri, positive control): < 0.125 µg/mL; IC50 of positive control antibiotic ([7]; S. aureus ATCC 33591, positive control): 2 µg/mL
CO[C@H]1/C=C/O[C@@]2(C)Oc3c(C)c(O)c4c(O)c(c(/C=N/N5CCN(C)CC5)c(O)c4c3C2=O)NC(=O)/C(C)=C\C=C\[C@H](C)[C@H](O)[C@@H](C)[C@@H](O)[C@@H](C)[C@H](OC(C)=O)[C@@H]1C [RIF, reference compound] |  |  |  |  |  |  |  |  |  |  |  |  | IC50 of positive control antibiotic (Enterococcus hirae 17446; E. hirae 17446, positive control): < 0.5 µg/mL; IC50 of positive control antibiotic ([1]; E. faecium EF379, positive control): 4 µg/mL; IC50 of positive control antibiotic ([2]; E. casseliflavus 15984, positive control): 0.9 µg/mL; IC50 of positive control antibiotic ([3]; E. gallinarum 20993, positive control): 3 µg/mL; IC50 of positive control antibiotic ([4]; E. faecalis 16371, positive control): > 8 µg/mL; IC50 of positive control antibiotic ([6]; E. faecium 15337, positive control): > 16 µg/mL
CCCCCCCCCCCCCCCC(=O)N[C@@H](Cc1ccc(O)cc1)C(=O)O [Compound 4, N-Palmitoyl-L-tyrosine] | 5.6 µM | 10.7 µM | 32.1 µM | 146 µM | 77.1 µM | > 305 µM | > 305 µM | > 305 µM | unaffected | unaffected |  |  | Enterococcus inhibitory activity (in words) ([6]; E. faecium 15337, FIG. 24 legend): inactive; Incomplete growth inhibition ([6]; E. faecium 15337, at all tested concentrations (footnote b)): < 50

Second part, led by results:

IC50 (Enterococcus hirae 17446) | IC50 ([1]; microbroth dilution) | IC50 [2] | IC50 [3] | IC50 [4] | IC50 [5] | IC50 [6] | IC50 [7] | SMILES | growth at the highest concentration tested (in words) ([5]; S. warneri) | growth at the highest concentration tested (in words) ([7]; S. aureus) | growth inhibition (in words) ([5]; S. warneri) | growth inhibition (in words) [7] | also measured
4.6 µM | 5.3 µM | 9 µM | 4.6 µM | 9.2 to 18.4 µM | 9.2 to 18.4 µM | 9.9 µM | 9.2 to 18.4 µM | CCCCCCCCCCCCCCCC(=O)N[C@@](C)(Cc1ccc(O)cc1)C(=O)O [Compound 3, N-Palmitoyl-α-methyl-L-tyrosine] |  |  | inhibited | inhibited | 
4.1 µM | 1.6 µM | 3.1 µM | 4 µM | 7.4 µM | > 286 µM | 7.2 µM | > 286 µM | CCCCCCCCCCCCCCCC(=O)N[C@@](C)(Cc1ccc(OC)cc1)C(=O)O [Compound 1, N-Palmitoyl-α,O-dimethyl-L-tyrosine] |  |  | Growth inhibition was observed | Growth inhibition was observed; also recorded: inhibited | IC50 ([8]; ATCC14035, Candida albicans ATCC 14035, microbroth dilution, read-out: IC50 of N-Acyltyrosines): > 286 µM; antimicrobial activity (in words) ([8]; fungal pathogen Candida albicans, initial screen): no activity was observed; growth inhibition (in words) ([1]; VRE, initial screen, microbroth dilution): Growth inhibition was observed; Incomplete growth inhibition ([5]; S. warneri, from 2-64 μg/mL (footnote b)): < 50%; Incomplete growth inhibition ([7]; S. aureus, 8-128 μg/mL (footnote b)): < 75%; concentration at which maximum inhibition was achieved ([7]; S. aureus, inhibition incomplete, plateaued at higher concentrations (FIG. 25)): 8 µg/mL; IC50 ([9]; ATCC12454, Proteus vulgaris ATCC 12454, microbroth dilution, read-out: IC50 of N-Acyltyrosines): > 286 µM; antimicrobial activity (in words) ([9]; Gram-negative pathogen Proteus vulgaris, initial screen): no activity was observed; IC50 ([10]; ATCC14210, Pseudomonas aeruginosa ATCC 14210, microbroth dilution, read-out: IC50 of N-Acyltyrosines): > 286 µM; antimicrobial activity (in words) ([10]; Gram-negative pathogen Pseudomonas aeruginosa, initial screen): no activity was observed
